This is an account of results in patent US12156867B2, “Melanocortin agents for use in the therapeutic treatment of melanoma, tumors of the gastrointestinal tract, and thyroid carcinoma” (UNIVERSITA' DI PISA, priority 2018, dated 2024).

SMILES strings stand for the structures.

For orientation: IC50 means the concentration at which inhibition is half-maximal.

What all share (type): cell-based
In test [1] the test system is A-2058 human melanoma cells. The experiment in a line: Apoptosis visualised by TO-PRO3 iodide nuclear staining, confocal microscopy. The settings on record: A-2058 cells, 10 nM, 72 h. On the procedure: (§1) In order to assess the apoptotic activity, the melanoma cells were plated at 2×10^5 in sterile Petri dishes. The analysis of apoptosis was performed on WM-266-4 and A-2058 cell lines after treatment with the compound ML00253764 at the experimental IC50 obtained after 72 hours. After the treatment, the cells were scraped off and recovered with their medium into blind ended tubes and counted in the Burker chamber. An aliquot containing 50,000 cells was centrifuged for 10 minutes at 800 rpm, the pellet thus obtained was lysed with an appropriate volume of lysis buffer for 30 minutes at room temperature, then again centrifuged at 200 g for 10 minutes. The supernatant was used for apoptosis analysis by ELISA assay (Cell Death detection ELISA PLUS, Roche). The ELISA apoptosis assay was performed in 96-well microplates and the absorbance reading was performed by using the Thermo labsystems Multiskan Spectrum reader (M-Medical, MI). To visualize the apoptotic process, 2×10^4 A-2058 cells were plated on slides in a 12-well plate and treated for 72 hours with the compound ML00253764 at a concentration of 10 nM. At the end of the incubation with the drug, the cells were washed with PBS, fixed and stained with TO-PRO3 iodide. The coverslips were finally mounted, and the slides viewed under a Leica TCS SP5 confocal laser scanning microscope. […]

Test [2] deals with 8305C human thyroid carcinoma cell line. The experiment in a line: In vitro cytotoxicity / antiproliferative effect, cell count after 72 h. To be noted: 8305C cells. The source says:
(§2) The present study used the human melanoma cell lines A-2058 BRAF-mutant (CRL-11147), obtained from ATCC (American Type Culture Collection, Manassas, USA), and WM-266-4 (91061233), obtained from ECACC (European Collection of Authenticated Cell Cultures). In addition, carcinoma cells of the gastrointestinal tract (Caco-2, HT-29) and thyroid carcinoma cells (8305C) were used. The compound ML00253764 was purchased from Tocris Bioscience (Bristol, UK), and solubilized in sterile water. The compound Vemurafenib was obtained from Selleckchem (Munich, Germany) and dissolved in dimethyl sulfoxide (DMSO). For the in vitro studies, both drugs were dissolved in a stock solution at 10 mM concentration. In the same experiment, the concentration of DMSO in the medium of the controls was the same used to obtain the maximum concentration of Vemurafenib in the cell culture media. The biotinylated anti-rabbit IgG antibody and the avidin-biotin complex were purchased from Vector Laboratories (Burlingame, CA, USA), while TO-PRO-3 iodide was from Molecular Probes (Eugene, OR, USA). Anti-MC4R antibody (ab75506) and goat anti-rabbit IgG antibody (Alexa Fluor 488) were purchased from Abcam (Cambridge, MA, USA).
(§3) The two tumor cell lines WM-266-4 and A-2058 were grown in cell culture flasks as monolayers and maintained in EMEM and DMEM, respectively, supplemented with 10% fetal bovine serum (FBS), penicillin (50 IU/ml), streptomycin (50 μg/ml) and L-Glutamine (2 mM). The Caco-2, HT-29 and 8305C cells, respectively, were grown in EMEM 20% FBS, McCoy's 5a Medium Modified 10% FBS and RPMI 20% FBS. All reagents used for maintaining tumor cells in culture were purchased from Sigma-Aldrich. The cell lines were maintained in the B5061EK/CO2 mod. Heraeus incubator (Hanau, Germany) at a temperature of 37° C. in a humid atmosphere at 5% CO2. The cells were detached from the culture plates while in the logarithmic growth phase by using a 10× trypsin-EDTA solution and finally plated again to be tested or to keep them in culture.
(§4) The concentration that reduced cell survival by 50% (IC50) compared to controls was finally calculated with GraphPad Prism (version 5.0, San Diego, CA). The simultaneous combination of Vemurafenib and ML00253764 was assessed in the 2 melanoma lines for 72 hours using the aforementioned compounds in a fixed molar ratio of 1:10. The assessment of the level of interaction (synergism, additivity or antagonism) between the compounds ML00253764 and Vemurafenib was performed with the Combination Index (CI) method, according to which CI=1 indicates an additive effect, CI>1 an antagonistic effect and CI<1 a synergistic effect.
(§5) The related IC50s were calculated at the end of the experiments.

Test [3] concerns HT-29 human carcinoma cell line of the gastrointestinal tract. The description is as above. To be noted: HT-29 cells.
From the text: as §2, §3, §4, §5

The subject of test [4] is A-2058 human melanoma cell line. Described as above. To be noted: A-2058 cells; for IC50: Homo sapiens, A2058, 72 h drug exposure, cell proliferation vs vehicle controls.
From the text: as §2, §3, §4

Test [5] concerns WM 266-4 human melanoma cell line. Described as above. To be noted: for IC50: Homo sapiens, WM 266-4 cells, 72 h drug exposure, cell proliferation vs vehicle controls.
From the text: as §2, §3, §4

The test system of test [6] is A-2058 human melanoma cells. Description: Apoptosis analysis by Cell Death Detection ELISA Plus. To be noted: A-2058 cells, 10 nM (corresponding to the IC50), 72 h. The method, then: as §1
For orientation: ELISA stands for enzyme-linked immunosorbent assay.

Test [7] concerns WM 266-4 human melanoma cells. The description is as above. The settings on record: WM 266-4 cells, 35 nM (corresponding to the IC50), 72 h. On the procedure:
as §1

Where [8] appears, read: Homo sapiens, 72 h drug exposure, cell proliferation vs vehicle controls.

On to `COc1ccc(Br)cc1CCc1c(F)cccc1C1=NCCN1` [ML00253764, 2-[2-[2-(5-bromo-2-methoxyphenyl)-ethyl]-3-fluorophenyl]-4,5-dihydro-1H-imidazole], for which the “apoptosis, TO-PRO3 nuclear fluorescence” value in test [1] was “increase in fluorescence with “shrunken” nuclei”. Besides, the antiproliferative effect entry is listed as “significant antiproliferative effect” in test [2] (10 nM, 72 h); “significant antiproliferative effect” in test [3] (10 nM, 72 h); “significant antiproliferative effect” in test [4] (10 nM, 72 h); “significant antiproliferative effect” in test [5] (WM-266-4 cells, 10 nM, 72 h). For the same compound, the IC50 was found to be 7670 nM in test [2] (setting [8]), 806 nM in test [3] (setting [8]), 11.1 nM in test [4] and 33.7 nM in test [5]. Also, in test [6], the “pro-apoptotic activity (ELISA, cytosolic nucleosomes)” value was “significant pro-apoptotic activity”. Moreover, the “apoptotic signal (ELISA, cytosolic nucleosomes)” value in test [7] is “significant increase in the apoptotic signal”.
In the case of `CCCS(=O)(=O)Nc1ccc(F)c(C(=O)c2c[nH]c3ncc(-c4ccc(Cl)cc4)cc23)c1F` [Vemurafenib], the IC50 in test [4] came out at 526 nM; in test [5], 46.6 nM.
